From US10597388B2, “Pyridazinone herbicides” (FMC CORPORATION, priority 2014, dated 2020)

Columns and labels:
Format in all cases: in vivo
[1] = system: ragweed (common ragweed, Ambrosia elatior); test: Test C greenhouse herbicide test, pre- and postemergence
From the text: (§1) Seeds of plant species selected from blackgrass (Alopecurus myosuroides), ryegrass, Italian (Italian ryegrass, Lolium multiflorum), wheat (winter wheat, Triticum aestivum), galium (catchweed bedstraw, Galium aparine), corn (Zea mays), large crabgrass, large (large crabgrass, Digitaria sanguinalis), foxtail, giant (giant foxtail, Setaria faberii), johnsongrass (Sorghum halepense), lambsquarters (Chenopodium album), morningglory (Ipomoea coccinea), nutsedge, yellow (yellow nutsedge, Cyperus esculentus), pigweed (Amaranthus retroflexus), ragweed (common ragweed, Ambrosia elatior), soybean (Glycine max), barnyardgrass (Echinochloa crus-galli), oilseed rape (Brassica napus), waterhemp (common waterhemp, Amaranthus rudis), and velvetleaf (Abutilon theophrasti) were planted into a blend of loam soil and sand and treated preemergence with test chemicals formulated in a non-phytotoxic solvent mixture which included a surfactant.
(§2) At the same time, plants selected from these crop and weed species and also chickweed (common chickweed, Stellaria media), kochia (Kochia scoparia), and oat, wild (wild oat, Avena fatua), were planted in pots containing Redi-Earth® planting medium (Scotts Company, 14111 Scottslawn Road, Marysville, Ohio 43041) comprising spaghnum peat moss, vermiculite, wetting agent and starter nutrients and treated with postemergence applications of test chemicals formulated in the same manner. Plants ranged in height from 2 to 18 cm (1- to 4-leaf stage) for postemergence treatments. Treated plants and controls were maintained in a greenhouse for 13 to 15 d, after which time all species were compared to controls and visually evaluated. Plant response ratings, summarized in Table C, are based on a scale of 0 to 100 where 0 is no effect and 100 is complete control. A dash (-) response means no test result.

[2] = system: waterhemp (common waterhemp, Amaranthus rudis); test: as above
From the text: as §1, §2

soybean (Glycine max) = test: as above
From the text: as §1, §2

corn (Zea mays) = test: as above
From the text: as §1, §2

[3] = system: morningglory (Ipomoea coccinea); test: as above
From the text: as §1, §2

[4] = system: blackgrass (Alopecurus myosuroides); test: as above
From the text: as §1, §2

[5] = system: velvetleaf (Abutilon theophrasti); test: as above
From the text: as §1, §2

[6] = system: johnsongrass (Sorghum halepense); test: as above
From the text: as §1, §2

[7] = system: pigweed (Amaranthus retroflexus); test: as above
From the text: as §1, §2

[8] = system: ryegrass, Italian (Italian ryegrass, Lolium multiflorum); test: as above
From the text: as §1, §2

[9] = system: crabgrass, large (large crabgrass, Digitaria sanguinalis); test: as above
From the text: as §1, §2

[10] = system: oilseed rape (Brassica napus); test: as above
From the text: as §1, §2

[11] = system: foxtail, giant (giant foxtail, Setaria faberii); test: as above
From the text: as §1, §2

[12] = system: lambsquarters (Chenopodium album); test: as above
From the text: as §1, §2

[13] = system: oat, wild (wild oat, Avena fatua); test: Test C greenhouse herbicide test, postemergence
Summary of the method: (§3)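 Test chemicals were applied postemergence to greenhouse plants at the 1- to 4-leaf stage (2–18 cm tall) growing in peat/vermiculite medium. After 13–15 d, injury was rated visually against untreated controls on a 0–100 scale (0 = no effect, 100 = complete control).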

kochia (Kochia scoparia) = test: Test C greenhouse herbicide test, postemergence
Summary of the method: as §3

[14] = Postemergence, 31 g ai/ha, 0 to 100 scale (0 no effect, 100 complete control)
[15] = Postemergence, 125 g ai/ha, scale 0 to 100, 0 is no effect, 100 is complete control
[16] = Postemergence, 250 g ai/ha, scale 0 to 100, 0 no effect, 100 complete control, 13 to 15 d
[17] = Preemergence, 31 g ai/ha, scale 0 to 100, 0 is no effect, 100 is complete control
[18] = Preemergence, 62 g ai/ha, scale 0 to 100, 0 is no effect, 100 is complete control
[19] = Preemergence, 125 g ai/ha, scale 0 to 100, 0 is no effect, 100 is complete control
[20] = Preemergence, 250 g ai/ha, scale 0 to 100 (0 no effect, 100 complete control)
[21] = postemergence, 62 g ai/ha, scale 0 to 100, 0 no effect, 100 complete control

CCC(=O)Oc1c(C)nn(C)c(=O)c1-c1c(C)sc2c(C)cc(C)cc12 [Compound 28]
100: Waterhemp plant response rating [2, 20] | Plant response rating, Morningglory [3, 15] | Plant response rating, Morningglory [3, 16] | Morningglory plant response rating [3, 20] | Plant response rating, Pigweed [7, 17] | Plant response rating, Pigweed [7, 18] | Plant response rating, Pigweed [7, 19] | Pigweed plant response rating [7, 20] | Plant response rating, Foxtail, Giant [11, 18] | Plant response rating, Foxtail, Giant [11, 19] | Foxtail, Giant plant response rating [11, 20] | Plant response rating, Lambsquarters [12, 15] | Plant response rating, Lambsquarters [12, 16] | Plant response rating, Oat, Wild [13, 15] | Plant response rating, Oat, Wild [13, 16] | Plant response rating, Kochia (kochia (Kochia scoparia); [16])
0: Soybean plant response rating (soybean (Glycine max); [14]) | Plant response rating, Soybean (soybean (Glycine max); [15]) | Plant response rating, Soybean (soybean (Glycine max); [19]) | Soybean plant response rating (soybean (Glycine max); [21]) | Plant response rating, Corn (corn (Zea mays); [17]) | Plant response rating, Corn (corn (Zea mays); [18]) | Plant response rating, Johnsongrass [6, 17] | Plant response rating, Johnsongrass [6, 18] | Plant response rating, Oilseed Rape [10, 17]
15: Plant response rating, Corn (corn (Zea mays); [16]) | Corn plant response rating (corn (Zea mays); [20])
40: Plant response rating, Crabgrass, Large [9, 15]
60: Waterhemp plant response rating [2, 14] | Pigweed plant response rating [7, 14] | Plant response rating, Crabgrass, Large [9, 18] | Oilseed Rape plant response rating [10, 21] | Foxtail, Giant plant response rating [11, 14]
70: Plant response rating, Ragweed [1, 17] | Blackgrass plant response rating [4, 21] | Velvetleaf plant response rating [5, 14] | Plant response rating, Oilseed Rape [10, 16] | Kochia plant response rating (kochia (Kochia scoparia); [14]) | Kochia plant response rating (kochia (Kochia scoparia); [21])
45: Plant response rating, Crabgrass, Large [9, 16]
30: Plant response rating, Corn (corn (Zea mays); [19]) | Plant response rating, Johnsongrass [6, 16]
95: Plant response rating, Ragweed [1, 19] | Morningglory plant response rating [3, 14] | Velvetleaf plant response rating [5, 20] | Plant response rating, Ryegrass, Italian [8, 16] | Plant response rating, Ryegrass, Italian [8, 19] | Ryegrass, Italian plant response rating [8, 20] | Plant response rating, Foxtail, Giant [11, 16] | Oat, Wild plant response rating [13, 14] | Oat, Wild plant response rating [13, 21] | Plant response rating, Kochia (kochia (Kochia scoparia); [15])
75: Ragweed plant response rating [1, 21] | Plant response rating, Waterhemp [2, 18] | Waterhemp plant response rating [2, 21]
5: Plant response rating, Soybean (soybean (Glycine max); [16]) | Corn plant response rating (corn (Zea mays); [14]) | Plant response rating, Corn (corn (Zea mays); [15]) | Corn plant response rating (corn (Zea mays); [21]) | Johnsongrass plant response rating [6, 14] | Plant response rating, Johnsongrass [6, 19] | Johnsongrass plant response rating [6, 21] | Oilseed Rape plant response rating [10, 14] | Plant response rating, Oilseed Rape [10, 15]
25: Plant response rating, Soybean (soybean (Glycine max); [18]) | Crabgrass, Large plant response rating [9, 14] | Plant response rating, Crabgrass, Large [9, 17]
98: Plant response rating, Morningglory [3, 18] | Plant response rating, Morningglory [3, 19] | Morningglory plant response rating [3, 21] | Lambsquarters plant response rating [12, 21]
90: Plant response rating, Ragweed [1, 16] | Plant response rating, Ragweed [1, 18] | Ragweed plant response rating [1, 20] | Plant response rating, Blackgrass [4, 16] | Plant response rating, Blackgrass [4, 18] | Plant response rating, Blackgrass [4, 19] | Blackgrass plant response rating [4, 20] | Plant response rating, Velvetleaf [5, 16] | Plant response rating, Velvetleaf [5, 19] | Plant response rating, Pigweed [7, 15] | Plant response rating, Pigweed [7, 16] | Plant response rating, Ryegrass, Italian [8, 15] | Plant response rating, Ryegrass, Italian [8, 18] | Oilseed Rape plant response rating [10, 20] | Lambsquarters plant response rating [12, 20]
85: Plant response rating, Ragweed [1, 15] | Plant response rating, Waterhemp [2, 15] | Plant response rating, Waterhemp [2, 16] | Plant response rating, Waterhemp [2, 19] | Plant response rating, Blackgrass [4, 17] | Plant response rating, Velvetleaf [5, 15] | Plant response rating, Velvetleaf [5, 18] | Velvetleaf plant response rating [5, 21] | Pigweed plant response rating [7, 21] | Plant response rating, Ryegrass, Italian [8, 17] | Ryegrass, Italian plant response rating [8, 21] | Crabgrass, Large plant response rating [9, 20] | Plant response rating, Oilseed Rape [10, 19] | Plant response rating, Foxtail, Giant [11, 15] | Plant response rating, Foxtail, Giant [11, 17] | Lambsquarters plant response rating [12, 14] | Plant response rating, Lambsquarters [12, 18] | Plant response rating, Lambsquarters [12, 19]
80: Plant response rating, Morningglory [3, 17] | Plant response rating, Blackgrass [4, 15] | Ryegrass, Italian plant response rating [8, 14] | Plant response rating, Crabgrass, Large [9, 19] | Foxtail, Giant plant response rating [11, 21]
65: Ragweed plant response rating [1, 14] | Plant response rating, Lambsquarters [12, 17]
50: Soybean plant response rating (soybean (Glycine max); [20]) | Blackgrass plant response rating [4, 14]
10: Johnsongrass plant response rating [6, 20]
20: Crabgrass, Large plant response rating [9, 21] | Plant response rating, Oilseed Rape [10, 18]
